Measurements reported in patent publication US20230416247A1, “DRUG-LIKE MOLECULES AND METHODS FOR THE THERAPEUTIC TARGETING OF MICRORNA-21” (University of Washington, priority 2020, published 2023).
Entries after “also recorded” stand apart in the source; their conditions may differ.

Columns and labels:
pre-miR-21 = experiment: 1D 1H imino NMR / NOESY titration of pre-miR-21 with compound; type: binding, human; details: for closing of the apical loop of pre-miR-21 (new imino signals / base pairs): 1 mM pre-miR-21 titrated to 1.5 mM compound, 800 MHz, 5° C., 50 mM deuterated Tris pH 6.5, 50 mM NaCl; for binding to pre-miR-21 (NMR data): FIGS. 7A-7D
Method: All data were collected at 800 Mhz and at 5° C. in buffer containing 50 mM deuterated Tris at pH 6.5 and 50 mM NaCl.
Remarkably, the compounds have the unique capacity to ‘close the loop’ of pre-miR-21. This large change in RNA structure is shown in FIGS. 7A-7D, compared to the unbound RNA which are shown at the bottom of FIGS. 7A and 7C. […] The effect is very similar to what is observed with mutations that stabilize the loop structure by inducing stable formations of base pairs in place of unstable base pairs, and that also reduce miR-21 expression in both biochemical experiments and in cells, as reported in the literature. Accordingly, the compounds of formula (I) are specific pre-miR-21 binding compounds with the capacity to inhibit enzymatic processing of this oncogenic miRNA sequence.
RNA Transcription. All RNAs for ligand screening and structural or biochemical work were prepared in house using in vitro transcription on a large scale (typically 10 mL). RNA transcription and purification protocols used purified DNA oligonucleotide templates (IDT) and T7 RNA polymerase. Briefly, 1 mL of 8 μM TOP DNA (5′-CTATAGTGAGTCGTATTA-3′ (SEQ ID NO: 1)), corresponding to the phage T7 RNA polymerase promoter region, was annealed to 80 μL of 100 μM template sequences with 13 mM MgCl2, heated to 95° C. for […] then allowed to anneal to room temperature over 20 min. The annealing mixture was incubated with 5 mM of each of the four NTPs (ATP, GTP, UTP and CTP, from Sigma), transcription buffer, 8% PEG-8000 and 35 mM magnesium chloride with 0.4 mg/mL T7 RNA polymerase expressed and purified using established methods. All RNA samples are purified from crude transcriptions by 20% denaturing polyacrylamide gel electrophoresis (PAGE), electroeluted and concentrated by ethanol precipitation. The samples are re-dissolved in 12 mL of high salt wash (700 mM NaCl, 200 mM KCl, in 10 mM potassium phosphate at pH 6.5, with 10 μM EDTA to chelate any divalent ions), concentrated using Centriprep conical concentrators ([…] MWC, Millipore). The RNA was then slowly exchanged into low salt storage buffer (10 mM potassium phosphate at pH 6.5, with 10 mM NaCl and 10 μM EDTA). Prior to NMR experiments, all RNA samples were finally desalted using NAP-10 gravity columns, lyophilized and re-dissolved in ‘screening buffer’ or ‘structure buffer’ (see below), then annealed by heating for 4 min to 90° C. and snap cooling at −20° C.

[1] = test system: mature miR-21 and pre-miR-21 in AGS cells; experiment: qRT-PCR of mature miR-21 and pre-miR-21 in AGS cells; type: cell-based, human; details: 10 nmoles, 48 hours, relative to DMSO control
Method: FIGS. 13A-13D compare levels of mature miR-21 and pre-mi-21 measured in gastric adenocarcinoma (AGS) (FIGS. 13A and 13B, respectively) and pancreatic cancer cell line (ASPC 1) (FIGS. 13C and 13D, respectively), normalized to internal controls (U6 or U8 snRNA), in the presence of 10 nmoles of palbociclib (used here as a negative control, not expected to affect microRNA levels) and compounds −0045 and −0052, 48 hours after incubation, relative to DMSO control, and measured by standard qRT-PCR. Statistically significant changes are labeled with asterisks.
Levels of mature miR-21 and its precursor pre-miR-21 were measured in gastric carcinoma (ASG) and pancreatic (ASPC1) cancer cell lines under conditions where we observed a decrease in proliferation (FIGS. 13A-13D), using the same blind format described above.
Cell line maintenance. Using the Cancer Cell Line Encyclopedia (CCLE), in-house cancer cell lines were screened to identify cancer and tissue types with varying levels of miR-21 expression. Experiments were performed using the human-derived cell lines AGS (gastric cancer) and AsPC-1 (pancreatic cancer). Cell lines were obtained from the American Type Culture Collection and maintained per instructions from the supplier. AGS were cultured in F12K medium supplemented with 10% FBS. AsPC-1 were cultured in RPMI, with 10% FBS added. All cells were kept at 37° C. in a humidified atmosphere of 5% CO2 and underwent regular mycoplasma testing. All experiments were conducted when cells were 70-80% confluent.
Quantitative real time PCR analysis. RNA was isolated utilizing Trizol (Invitrogen) and the Direct-zol RNA Miniprep kit (Zymo Research). RNA concentration was assessed with the NanoDrop ND-1000 spectrophotometer (ThermoFisher Scientific). All microRNAs expression was tested in the two representative cell lines using qRT-PCR. Cells were seeded in 6-well plates 24 hours before treatment, at a cell confluency of 50-60%. Each cell line was treated with 10 μM compound or with only the dimethyl sulfoxide (DMSO) solvent. RNA was collected after the 48-hour time point. Expression of miR-21 was assessed utilizing the TaqMan microRNA assay (Applied Biosystems). The complementary DNA (cDNA) was synthesized using the TaqMan Reverse Transcription Reagents kit (Applied Biosystems) and was used with the TaqMan probes and Supermix (BioRad) for qRT-PCR analysis. U6 or U48 were used as internal controls for RNA levels. All experiments were performed in triplicate, with all samples normalized to the internal controls and relative expression levels calculated using the 2^ΔΔCt method.

Row | SMILES | closing of the apical loop of pre-miR-21 (new imino signals / base pairs) (pre-miR-21) | binding to pre-miR-21 (NMR data) (pre-miR-21) | decrease in mature miR-21 levels [1] | pre-miR-21 levels [1]
1 | O=c1[nH]c(Nc2ccc(N3CCNCC3)cn2)nc2cnccc12 [Compound 30] | emergence of new imino NH chemical shift resonances for the apical loop portion | bind to pre-miR-21 strongly | 40% | reduction in pre-miR-21 levels
2 | O=c1[nH]c(Nc2ccc(N3CCNCC3)cn2)nc2cccnc12 [Compound 25] | formation of the putative tandem UG/GU wobble pair in the apical loop; also recorded: emergence of new imino NH chemical shift resonances for the apical loop portion | bind to pre-miR-21 strongly | 40% | reduction in pre-miR-21 levels
